Experimental data published in patent publication EP3212201B1, “NUCLEOSIDE KINASE INHIBITORS” (BCI Pharma, priority 2014, dated 2016).

Key:
Experiment in all cases: FRET-based coupled-enzyme protein kinase inhibition assay
Format in all cases: biochemical
Details in all cases: compound at 10 µM, 1% DMSO
BTK = BTK (Homo sapiens, UniProt Q06187)
Method in brief: (§1)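 FRET peptide (coumarin donor, fluorescein acceptor) was phosphorylated by each kinase in 50 mM HEPES pH 7.5, 10 mM MgCl2, 1 mM EDTA, 0.01% BRIJ-35 for 60 min at room temperature. ATP was at apparent Km, compounds in 1% DMSO. Protease development reagent then cleaved non-phosphorylated peptide over 60 min.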

ACVR1B (ALK4) = biological target: T1, ACVR1B (ALK4) (Homo sapiens, UniProt P36896)
T1 sequence (P36896 24-505): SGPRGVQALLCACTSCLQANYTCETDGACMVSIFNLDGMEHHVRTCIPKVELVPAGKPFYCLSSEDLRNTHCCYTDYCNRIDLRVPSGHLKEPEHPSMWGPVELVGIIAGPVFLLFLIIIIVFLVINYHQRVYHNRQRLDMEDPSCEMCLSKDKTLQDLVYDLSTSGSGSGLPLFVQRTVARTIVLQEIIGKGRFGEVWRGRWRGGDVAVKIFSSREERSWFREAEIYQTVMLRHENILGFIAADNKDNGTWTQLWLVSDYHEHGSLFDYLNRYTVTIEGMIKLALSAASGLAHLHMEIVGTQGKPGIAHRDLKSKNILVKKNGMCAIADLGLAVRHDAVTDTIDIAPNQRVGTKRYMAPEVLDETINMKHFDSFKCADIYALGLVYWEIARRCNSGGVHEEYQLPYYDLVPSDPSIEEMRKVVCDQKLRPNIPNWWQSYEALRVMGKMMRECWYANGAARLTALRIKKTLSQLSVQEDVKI
Method in brief: as §1

SRC = SRC (Homo sapiens, UniProt P12931)
Method in brief: as §1

PHKG2 = biological target: T2, PHKG2 (Homo sapiens, UniProt P15735)
T2 sequence (P15735 1-406): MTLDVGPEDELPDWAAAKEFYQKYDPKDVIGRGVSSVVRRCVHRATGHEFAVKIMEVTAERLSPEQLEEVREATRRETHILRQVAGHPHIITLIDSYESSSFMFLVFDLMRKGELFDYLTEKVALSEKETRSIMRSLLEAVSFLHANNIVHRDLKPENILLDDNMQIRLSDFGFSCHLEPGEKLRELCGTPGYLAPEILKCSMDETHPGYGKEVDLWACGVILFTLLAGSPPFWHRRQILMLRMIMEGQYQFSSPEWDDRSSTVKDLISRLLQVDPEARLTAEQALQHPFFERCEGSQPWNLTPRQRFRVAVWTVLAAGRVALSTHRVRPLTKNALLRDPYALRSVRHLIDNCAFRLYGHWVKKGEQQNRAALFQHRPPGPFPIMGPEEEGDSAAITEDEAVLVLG
Method in brief: as §1

TEK (Tie2) = TEK (Tie2) (Homo sapiens, UniProt Q02763)
Method in brief: as §1

GSK3B (GSK3 beta) = GSK3B (GSK3 beta) (Homo sapiens, UniProt P49841)
Method in brief: as §1

MAPK8 (JNK1) = MAPK8 (JNK1) (Homo sapiens, UniProt P45983)
Method in brief: as §1

RPS6KB1 (p70S6K) = RPS6KB1 (p70S6K) (Homo sapiens, UniProt P23443)
Method in brief: as §1

MAPK3 (ERK1) = MAPK3 (ERK1) (Homo sapiens, UniProt P27361)
Method in brief: as §1

ROCK1 = ROCK1 (Homo sapiens, UniProt Q13464)
Method in brief: as §1

PDGFRB (PDGFR beta) = PDGFRB (PDGFR beta) (Homo sapiens, UniProt P09619)
Method in brief: as §1

ERBB2 (HER2) = ERBB2 (HER2) (Homo sapiens, UniProt P04626)
Method in brief: as §1

MAP2K1 (MEK1) = MAP2K1 (MEK1) (Homo sapiens, UniProt Q02750)
Method in brief: as §1

EGFR (ErbB1) = EGFR (ErbB1) (Homo sapiens, UniProt P00533)
Method in brief: as §1

Chain of MAP2K1 (MEK1) (Q02750 whole entry, species assumed): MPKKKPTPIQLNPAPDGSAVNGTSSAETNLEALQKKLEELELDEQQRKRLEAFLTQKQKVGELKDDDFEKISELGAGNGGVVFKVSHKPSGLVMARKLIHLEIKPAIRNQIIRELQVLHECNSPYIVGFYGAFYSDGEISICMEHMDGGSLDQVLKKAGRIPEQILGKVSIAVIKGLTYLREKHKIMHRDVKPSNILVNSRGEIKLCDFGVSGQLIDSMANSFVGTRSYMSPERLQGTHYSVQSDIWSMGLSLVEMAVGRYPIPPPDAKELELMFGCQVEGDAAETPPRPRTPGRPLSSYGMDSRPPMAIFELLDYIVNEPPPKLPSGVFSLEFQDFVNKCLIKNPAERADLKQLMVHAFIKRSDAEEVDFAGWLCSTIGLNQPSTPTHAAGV
Chain of GSK3B (GSK3 beta) (P49841 whole entry, species assumed): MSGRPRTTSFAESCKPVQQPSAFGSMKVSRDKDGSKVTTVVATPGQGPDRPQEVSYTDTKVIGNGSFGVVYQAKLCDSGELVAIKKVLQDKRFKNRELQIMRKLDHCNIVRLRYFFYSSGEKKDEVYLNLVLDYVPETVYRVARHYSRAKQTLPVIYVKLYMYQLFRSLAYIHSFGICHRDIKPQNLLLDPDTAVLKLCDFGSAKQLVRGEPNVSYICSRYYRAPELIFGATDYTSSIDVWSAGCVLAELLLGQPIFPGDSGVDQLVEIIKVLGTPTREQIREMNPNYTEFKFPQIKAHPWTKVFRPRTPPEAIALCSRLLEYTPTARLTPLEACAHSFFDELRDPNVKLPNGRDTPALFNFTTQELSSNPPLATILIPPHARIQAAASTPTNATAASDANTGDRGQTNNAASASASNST
Chain of RPS6KB1 (p70S6K) (P23443 whole entry, species assumed): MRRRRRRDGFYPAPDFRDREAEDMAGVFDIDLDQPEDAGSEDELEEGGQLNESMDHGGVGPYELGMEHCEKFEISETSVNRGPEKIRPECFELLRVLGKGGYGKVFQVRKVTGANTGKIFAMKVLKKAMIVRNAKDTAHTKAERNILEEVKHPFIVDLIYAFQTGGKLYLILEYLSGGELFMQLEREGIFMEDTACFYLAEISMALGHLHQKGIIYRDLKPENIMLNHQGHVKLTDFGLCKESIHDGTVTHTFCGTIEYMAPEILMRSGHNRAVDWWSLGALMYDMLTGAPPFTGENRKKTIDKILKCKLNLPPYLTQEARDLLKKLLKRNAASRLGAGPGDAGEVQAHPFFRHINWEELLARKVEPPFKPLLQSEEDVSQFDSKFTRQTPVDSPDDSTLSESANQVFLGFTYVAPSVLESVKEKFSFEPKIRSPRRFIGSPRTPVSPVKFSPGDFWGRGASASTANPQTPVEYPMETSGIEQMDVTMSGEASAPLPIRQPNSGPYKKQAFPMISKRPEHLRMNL
Chain of BTK (Q06187 whole entry, species assumed): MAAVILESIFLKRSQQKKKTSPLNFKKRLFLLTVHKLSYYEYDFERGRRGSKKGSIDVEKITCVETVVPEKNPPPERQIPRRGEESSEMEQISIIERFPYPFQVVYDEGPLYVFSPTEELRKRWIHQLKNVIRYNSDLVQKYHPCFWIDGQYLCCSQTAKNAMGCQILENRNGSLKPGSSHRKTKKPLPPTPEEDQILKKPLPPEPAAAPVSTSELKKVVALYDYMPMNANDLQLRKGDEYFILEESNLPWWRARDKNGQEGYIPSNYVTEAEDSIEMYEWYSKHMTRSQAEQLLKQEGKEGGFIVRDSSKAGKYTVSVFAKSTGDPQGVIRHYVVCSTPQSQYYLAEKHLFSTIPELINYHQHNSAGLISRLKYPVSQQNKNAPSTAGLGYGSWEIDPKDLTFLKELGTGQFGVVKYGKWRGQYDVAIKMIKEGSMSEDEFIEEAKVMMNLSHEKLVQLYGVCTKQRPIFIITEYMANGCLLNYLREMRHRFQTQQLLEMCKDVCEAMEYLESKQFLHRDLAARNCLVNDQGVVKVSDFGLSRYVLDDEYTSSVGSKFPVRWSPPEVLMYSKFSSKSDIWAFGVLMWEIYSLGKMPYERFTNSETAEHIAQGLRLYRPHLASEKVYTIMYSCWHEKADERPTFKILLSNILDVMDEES
Chain of ROCK1 (Q13464 whole entry, species assumed): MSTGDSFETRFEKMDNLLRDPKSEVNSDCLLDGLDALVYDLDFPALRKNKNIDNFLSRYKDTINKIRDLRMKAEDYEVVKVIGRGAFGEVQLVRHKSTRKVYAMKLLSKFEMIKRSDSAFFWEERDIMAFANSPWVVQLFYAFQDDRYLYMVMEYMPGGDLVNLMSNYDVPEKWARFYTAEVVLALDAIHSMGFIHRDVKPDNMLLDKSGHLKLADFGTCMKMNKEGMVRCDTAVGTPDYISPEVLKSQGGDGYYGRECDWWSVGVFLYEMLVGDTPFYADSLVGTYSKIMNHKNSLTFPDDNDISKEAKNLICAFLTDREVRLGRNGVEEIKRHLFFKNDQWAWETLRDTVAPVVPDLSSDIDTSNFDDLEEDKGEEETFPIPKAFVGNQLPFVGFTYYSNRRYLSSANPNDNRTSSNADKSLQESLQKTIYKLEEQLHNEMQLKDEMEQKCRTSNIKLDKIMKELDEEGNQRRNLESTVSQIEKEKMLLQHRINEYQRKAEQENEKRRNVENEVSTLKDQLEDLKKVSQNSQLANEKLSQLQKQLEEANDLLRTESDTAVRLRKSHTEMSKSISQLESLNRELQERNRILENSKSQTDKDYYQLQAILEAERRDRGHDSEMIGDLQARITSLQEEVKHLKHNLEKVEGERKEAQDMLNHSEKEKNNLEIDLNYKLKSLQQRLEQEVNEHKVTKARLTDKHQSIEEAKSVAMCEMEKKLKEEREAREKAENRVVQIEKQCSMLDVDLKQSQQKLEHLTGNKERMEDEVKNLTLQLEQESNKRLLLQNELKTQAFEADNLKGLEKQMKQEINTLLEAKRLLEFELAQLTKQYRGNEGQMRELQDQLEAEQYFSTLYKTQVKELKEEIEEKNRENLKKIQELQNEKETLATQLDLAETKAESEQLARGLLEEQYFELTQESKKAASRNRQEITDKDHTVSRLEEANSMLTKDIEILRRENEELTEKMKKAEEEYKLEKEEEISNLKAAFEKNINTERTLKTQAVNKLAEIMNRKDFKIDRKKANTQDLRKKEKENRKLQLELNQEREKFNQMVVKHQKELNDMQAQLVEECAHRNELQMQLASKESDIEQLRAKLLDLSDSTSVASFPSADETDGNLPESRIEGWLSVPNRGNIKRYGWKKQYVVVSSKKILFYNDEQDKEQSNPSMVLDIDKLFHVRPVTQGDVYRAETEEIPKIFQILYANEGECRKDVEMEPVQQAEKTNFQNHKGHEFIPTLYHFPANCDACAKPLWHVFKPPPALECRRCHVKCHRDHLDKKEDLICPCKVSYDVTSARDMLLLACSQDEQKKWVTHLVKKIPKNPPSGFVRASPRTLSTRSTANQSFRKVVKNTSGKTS
Chain of ERBB2 (HER2) (P04626 23-1255, species assumed): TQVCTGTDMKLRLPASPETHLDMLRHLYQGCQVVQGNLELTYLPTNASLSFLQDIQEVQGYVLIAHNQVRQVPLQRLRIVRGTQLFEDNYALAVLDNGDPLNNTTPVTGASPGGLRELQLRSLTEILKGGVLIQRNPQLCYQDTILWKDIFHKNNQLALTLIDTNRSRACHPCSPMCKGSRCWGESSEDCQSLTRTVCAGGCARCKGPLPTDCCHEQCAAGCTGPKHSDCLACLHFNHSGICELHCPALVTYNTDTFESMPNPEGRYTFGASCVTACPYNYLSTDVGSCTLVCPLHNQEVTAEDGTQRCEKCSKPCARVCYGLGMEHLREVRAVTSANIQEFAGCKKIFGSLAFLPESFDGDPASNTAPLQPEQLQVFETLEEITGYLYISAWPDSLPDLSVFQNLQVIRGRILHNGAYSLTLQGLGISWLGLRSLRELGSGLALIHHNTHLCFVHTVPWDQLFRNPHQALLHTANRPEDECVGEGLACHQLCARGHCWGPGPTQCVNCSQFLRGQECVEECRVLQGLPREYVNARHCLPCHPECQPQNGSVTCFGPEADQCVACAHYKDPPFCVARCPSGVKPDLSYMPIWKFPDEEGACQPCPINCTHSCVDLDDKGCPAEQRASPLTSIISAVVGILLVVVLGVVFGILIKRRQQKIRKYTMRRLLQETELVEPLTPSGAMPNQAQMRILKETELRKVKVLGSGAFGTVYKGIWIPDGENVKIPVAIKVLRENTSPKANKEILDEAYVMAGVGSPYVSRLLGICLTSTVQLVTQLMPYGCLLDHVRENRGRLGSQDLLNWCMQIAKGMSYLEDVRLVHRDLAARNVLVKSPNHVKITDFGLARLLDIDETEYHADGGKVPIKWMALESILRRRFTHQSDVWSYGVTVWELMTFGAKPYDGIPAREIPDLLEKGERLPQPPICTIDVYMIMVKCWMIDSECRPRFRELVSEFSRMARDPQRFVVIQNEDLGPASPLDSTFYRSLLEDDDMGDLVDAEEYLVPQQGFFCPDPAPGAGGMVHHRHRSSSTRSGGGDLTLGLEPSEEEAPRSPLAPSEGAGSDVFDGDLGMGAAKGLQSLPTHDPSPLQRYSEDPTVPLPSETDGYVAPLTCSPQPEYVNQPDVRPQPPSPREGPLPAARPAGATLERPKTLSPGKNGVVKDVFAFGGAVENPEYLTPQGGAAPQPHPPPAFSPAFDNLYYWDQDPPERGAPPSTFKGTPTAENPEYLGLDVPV
Chain of MAPK3 (ERK1) (P27361 whole entry, species assumed): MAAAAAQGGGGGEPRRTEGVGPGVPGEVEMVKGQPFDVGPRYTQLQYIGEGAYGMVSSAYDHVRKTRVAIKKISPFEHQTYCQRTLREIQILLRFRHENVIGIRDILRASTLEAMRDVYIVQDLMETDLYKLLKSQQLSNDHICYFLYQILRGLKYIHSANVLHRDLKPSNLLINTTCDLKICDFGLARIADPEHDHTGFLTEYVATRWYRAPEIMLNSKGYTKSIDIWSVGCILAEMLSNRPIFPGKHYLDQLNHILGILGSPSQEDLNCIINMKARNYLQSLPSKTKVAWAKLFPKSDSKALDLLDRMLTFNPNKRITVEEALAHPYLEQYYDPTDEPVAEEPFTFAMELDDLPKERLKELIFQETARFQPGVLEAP

inhibition at 10 µM (BTK) | inhibition at 10 µM (ACVR1B (ALK4)) | inhibition at 10 µM (SRC) | inhibition at 10 µM (PHKG2) | inhibition at 10 µM (TEK (Tie2)) | inhibition at 10 µM (GSK3B (GSK3 beta)) | inhibition at 10 µM (MAPK8 (JNK1)) | inhibition at 10 µM (RPS6KB1 (p70S6K)) | inhibition at 10 µM (MAPK3 (ERK1)) | inhibition at 10 µM (ROCK1) | inhibition at 10 µM (PDGFRB (PDGFR beta)) | inhibition at 10 µM (ERBB2 (HER2)) | inhibition at 10 µM (MAP2K1 (MEK1)) | inhibition at 10 µM (EGFR (ErbB1)) | SMILES
4% | 0% | 8% | -2% | -2% | -2% | 5% | 0% | 3% | -15% | 9% | -7% | -2% | 28% | Nc1ncnc2c1ncn2[C@@H]1O[C@H](COC(=O)N2CCN(C(=O)N3CCOCC3)CC2)[C@@H](O)[C@H]1O [Compound C89]
16% | -1% | 58% | -1% | 58% | -1% | 4% | 0% | 8% | -8% | 10% | 5% | 4% | 5% | CS(=O)(=O)N1CC2(CCN(C(=O)OC[C@H]3O[C@@H](n4cnc5c(N)ncnc54)[C@H](O)[C@@H]3O)CC2)c2ccccc21 [Compound C98]
-5% | 3% | 8% | 1% | 2% | 5% | 7% | 13% | 10% | -6% | 4% | 2% | 5% | 8% | Nc1ncnc2c1ncn2[C@@H]1O[C@H](COC(=O)N2CCS(=O)(=O)CC2)[C@@H](O)[C@H]1O [Compound C100]
